Test results taken from BigSolDB 2.1.

CC(=O)Oc1ccccc1C(=O)O
Conditions | solubility (mole fraction)
in acetone, 281.9 K | 0.061
in acetone, 290.6 K | 0.075
in acetone, 297.9 K | 0.088
in acetone, 304.4 K | 0.101
in acetone, 310.6 K | 0.114
in acetone, 315.3 K | 0.127
in acetone, 319.8 K | 0.139
in acetone, 323.3 K | 0.151
in acetone, 326.3 K | 0.162
in ethanol, 276.3 K | 0.025
in ethanol, 291.9 K | 0.049
in ethanol, 302.4 K | 0.071
in ethanol, 310 K | 0.093
in ethanol, 316.5 K | 0.113
in ethanol, 321.5 K | 0.133
in ethanol, 325.9 K | 0.152
in ethanol, 330.4 K | 0.17
in ethanol, 333.4 K | 0.187
in ethanol, 336.6 K | 0.204
in isopropanol, 281.6 K | 0.013
in isopropanol, 291.8 K | 0.032
in isopropanol, 304.1 K | 0.063
in isopropanol, 312.9 K | 0.091
in isopropanol, 316.1 K | 0.102
in isopropanol, 320.4 K | 0.118
in isopropanol, 322.7 K | 0.128
in isopropanol, 325.8 K | 0.143
in isopropanol, 327.7 K | 0.153
in isopropanol, 330.2 K | 0.167
in propylene glycol, 295.7 K | 0.017
in propylene glycol, 301.1 K | 0.025
in propylene glycol, 305.1 K | 0.033
in propylene glycol, 308.2 K | 0.041
in propylene glycol, 313.6 K | 0.056
in propylene glycol, 318.3 K | 0.071
in propylene glycol, 323.7 K | 0.092
in propylene glycol, 327.9 K | 0.112
in propylene glycol, 330.7 K | 0.126
in propylene glycol, 333.9 K | 0.145
